Assay results as given in paper PMC12713470, “Design and Synthesis of Novel Chalcone Derivatives Targeting Bladder and Liver Cancer: Cytotoxicity Evaluation and Preliminary Mechanistic Studies” (ACS Omega, 2025).

Experiments:
[1] = system: HeLa: human cervical adenocarcinoma cells; assay: MTT cytotoxicity assay on HeLa cells; type: cell-based
Method: (§1) Cytotoxicity was determined using the MTT colorimetric assay, and half-maximal inhibitory concentrations (IC50, μM) were obtained for all cell lines (Table ). The selectivity index (SI) was calculated as the ratio of IC50 MRC-5/IC50 cancer cell line. Doxorubicin was employed as a positive control due to its broad-spectrum clinical use, either alone or in combination, against hepatocellular, ovarian, cervical, and bladder cancers. −
(§2) In vitro biological assays were performed by using five human cell lines for cytotoxicity evaluation. HepG2 cells (ATCC HB-8065), derived from a human hepatocellular carcinoma of the liver (person), were cultured in Dulbecco’s modified Eagle medium (DMEM) supplemented with 5% fetal bovine serum (FBS), penicillin/streptomycin (100 IU/mL), and amphotericin B (5 μg/mL), in a humidified incubator with 5% CO2 at 37 °C. These cells were plated at a concentration of 2.0 × 10^4 cells/well in 96-well microplates. MRC-5 cells (ATCC CCL-171), derived from human lung fibroblasts of a […] fetus, were cultured under the same conditions and plated at 1.0 × 10^4 cells/well. T24 cells (ATCC HTB-4), established from a transitional cell carcinoma of the bladder (person), were also cultured under identical conditions and plated at a density of 1.0 × 10^4 cells/well. TOV-21G cells (ATCC CRL-11730), derived from a primary malignant ovarian adenocarcinoma (person), were maintained in DMEM with the same supplementation and environmental conditions and plated at 5.0 × 10^4 cells/well. […]
(§3) HeLa, HepG2, MRC-5, T24, and TOV-21G cells were suspended in a culture medium supplemented with 5% fetal bovine serum (FBS) and seeded into 96-well microplates. The plates were incubated under a humidified atmosphere containing 5% CO2 at 37 °C for 24 h, allowing for adherence and monolayer formation. , Eight serial dilutions of the test samples, previously solubilized in dimethyl sulfoxide (DMSO), were prepared in DMEM supplemented with 1% FBS, covering a concentration range from […], and the results were converted to […]. The volume of DMSO in each well was limited to a final concentration not exceeding 2%. Following monolayer formation, the culture medium was aspirated and replaced with 100 μL of the diluted test samples and 100 μL of DMEM containing 1% FBS. The plates were then incubated under the same atmospheric and temperature conditions.
(§4) Two hours prior to end point reading, 20 μL of MTT [3-(4,5-dimethylthiazol-2-yl)-2,5-diphenyltetrazolium bromide] solution (1.0 mg/mL in sterile phosphate-buffered saline, Sigma-Aldrich) was added to each well. The incubation period following sample addition varied according to the cell line: 24 h for MRC-5, 48 h for T24, and 72 h for HeLa, HepG2, and TOV-21G. After the appropriate incubation, absorbance was measured by using a VICTOR X3 microplate reader (PerkinElmer), and data were processed with WorkOut 2.5 software at a wavelength of 490 nm. Formazan formation, resulting from the MTT reduction by metabolically active cells, was used as an indirect measure of cell viability. The percentage of cytotoxicity was calculated using the equation % cytotoxicity = [(A – B)/A] × 100, where A is the optical density (OD4 9 0) of untreated control cells and B is the OD4 9 0 of treated cells.
(§5) Cytotoxicity was expressed as the 50% cytotoxic concentration (CC5 0), representing the concentration of sample required to reduce cell viability by 50% relative to that of the untreated control.

[2] = system: HepG2: human liver hepatocellular carcinoma cells; assay: MTT cytotoxicity assay on HepG2 cells; type: cell-based
Method: as §1, §2, §3, §4, §5

[3] = system: TOV-21G: human ovarian adenocarcinoma cells; assay: MTT cytotoxicity assay on TOV-21G cells; type: cell-based
Method: as §1, §2, §3, §4, §5

[4] = system: T24 cells; assay: Clonogenic survival, T24; type: cell-based, human; settings: 18.50 μM (maximum concentration tested), 48 h treatment, 10 days colony formation
Method: (§6) The cells were cultured in DMEM (Sigma-Aldrich, St. Louis, USA) and supplemented with 10% fetal bovine serum (Cultilab Ltda., Campinas, Brazil) and antibiotics (amphotericin). They were incubated at 37 °C in a humidified atmosphere with 5% CO2. Control cell groups, which were not exposed to the compound, were included in the experiments and were conducted in triplicate. The chalcone was dissolved in dimethyl sulfoxide (DMSO) for the assays.
The cells were trypsinized and plated into 24-well plates at a density of 1.0 × 10^5 cells/mL. Afterward, they were treated with the chalcone at concentrations of 2.15, 4.62, 9.25, and 18.50 μM for 48 h. Following treatment, the cells were washed with Hanks’ solution and trypsinized again, and approximately 1000 cells were reseeded into 12-well plates. These cells were incubated for 10 days in a CO2 incubator to allow colony formation. After the incubation period, the culture medium was removed, and the cells were washed with Hanks’ solution. Fixation was performed using 4% formaldehyde for 20 min, followed by […] in 100% methanol for 20 min. The cells were then stained with a 0.5% crystal violet solution prepared in 25% methanol. […] Absorbance was measured at 570 nm using a spectrophotometer, and the results were expressed as the percentage of colonies formed relative to the untreated control group.

[5] = system: T24 cells; assay: Cell migration (wound), T24; type: cell-based, human; settings: highest concentration tested, 48 h
Method: as §6
Cells were seeded in 24-well plates at a density of 1.0 × 10^5 cells per well and incubated for 24 h to allow attachment. After this incubation, a sterile 200 μL pipet tip was used to scrape the cell monolayer, creating a wound. The initial wound area was photographed using an inverted microscope equipped with a camera. Following this, the cells were washed with Hanks’ solution and treated with the glycosylated chalcone at concentrations of 2.15, 4.62, 9.25, and 18.50 μM for 48 h. At the end of the treatment period, the cells were photographed again, and migration into the wound area was assessed. The percentage of cell migration was quantified using ImageJ and GraphPad Prism software.

[6] = system: T24 cells; assay: Cell cycle progression (propidium iodide flow cytometry), T24; type: cell-based, human; settings: after treatment, 48 h
Method: Cells were seeded in 12-well plates at a density of 1.0 × 10^5 cells per well and incubated for 24 h to allow adhesion. Following this initial incubation, the cells were treated with the chalcone at concentrations of 0.92, 2.15, 4.62, and 9.25 μM for an additional 48 h. After the treatment, the cells were washed, trypsinized, and collected along with the culture supernatant into Falcon tubes. The samples were then centrifuged at 1000 rpm for 10 min. After centrifugation, the supernatant was discarded, and the cell pellets were resuspended in 200 μL of propidium iodide staining solution before being transferred to cytometry tubes. These tubes were incubated on ice, in the dark, for 30 min. Flow cytometric analysis was performed on 20,000 events using a BD FACScalibur flow cytometer (BD Biosciences, Franklin Lakes, NJ, USA), and the data were analyzed using FlowJo software.

In the case of `CCCc1cc(/C=C/C(=O)c2ccc(C)cc2)c(OC)c(OC)c1` [compound 3, (E)-3-(2,3-Dimethoxy-5-propylphenyl)-1-(p-tolyl)-prop-2-en-1-one], the IC50 ([1]; Homo sapiens, HeLa, MTT, 72 h incubation, n = 3, NA: noncytotoxic at the concentrations tested) is reported as 5.9 ± 1.6 µM, the “SI (HeLa)” value ([1]; IC50 MRC-5/IC50 HeLa) is reported as 9.3 and the IC50 ([2]; Homo sapiens, HepG2, MTT, 72 h incubation, n = 3, NA: noncytotoxic at the concentrations tested) is reported as 4.5 ± 1.2 µM. The “SI (HepG2)” value ([2]; IC50 MRC-5/IC50 HepG2) was 12.2, the IC50 ([3]; Homo sapiens, TOV21G, MTT, 72 h incubation, n = 3, NA: noncytotoxic at the concentrations tested) was 3 ± 2.6 µM and the “SI (TOV-21G)” value ([3]; IC50 MRC-5/IC50 TOV-21G) was 18.2. The “colony formation, T24” value [4] was “significant effect was observed”, the “cell migration, T24” value [5] was “significant decrease was observed” and the “cell cycle distribution, T24” value [6] was “no difference was observed after treatment”.
